The results in this text go back to patent US9725449B2, “Tricyclic compounds as anticancer agents” (BRISTOL-MYERS SQUIBB COMPANY, priority 2015, dated 2017).

The target of the experiment is BRD4 (Homo sapiens, UniProt O60885). The experiment in a line: Time resolved fluorescence resonance energy transfer (TR-FRET) binding assay, bromodomain BRD4. The following applies: one of the FRET assays described; read-out: FRET BRD4 IC50. (In general: TR-FRET usually uses a lanthanide donor and a delayed reading to cut background.)

In general, IC50 refers to the concentration that inhibits the measured activity by half. As for `[2H]C([2H])([2H])c1nnn(C)c1-c1cnc2c3ccc(N(C)C)nc3n([C@H](c3ccccc3F)C3CCOCC3)c2c1` [Example 238, 8-[(S)-(2-Fluorophenyl)(oxan-4-yl)methyl]-N,N-dimethyl-5-[4-(^2H3)methyl-1-methyl-1H-1,2,3-triazol-5-yl]-3,8,10-triazatricyclo[7.4.0.0^2,^7]trideca-1(13),2(7),3,5,9,11-hexaen-11-amine], the IC50 was less than 0.01 µM. With `Cc1nnn(C)c1-c1cnc2c3ccc(S(C)(=O)=O)nc3n([C@H](c3ccccc3)C3CCOCC3)c2c1` [Example 145, 5-(Dimethyl-1H-1,2,3-triazol-5-yl)-11-methanesulfonyl-8-[(S)-oxan-4-yl(phenyl)methyl]-3,8,10-triazatricyclo[7.4.0.0^2,^7]trideca-1(13),2(7),3,5,9,11-hexaene], the IC50 is less than 0.01 µM. Turning to `COc1nnn(C)c1-c1cnc2c3ccc(N4CCN(C)CC4)nc3n([C@H](c3ccccc3F)C3CCOCC3)c2c1` [Example 254, 8-[(S)-(2-Fluorophenyl)(oxan-4-yl)methyl]-5-(4-methoxy-1-methyl-1H-1,2,3-triazol-5-yl)-11-(4-methylpiperazin-1-yl)-3,8,10-triazatricyclo[7.4.0.0^2,^7]trideca-1(13),2(7),3,5,9,11-hexaene], the IC50 is less than 0.001 µM.

For `[2H]C([2H])([2H])c1nnn(C)c1-c1cnc2c3ccc(Cl)nc3n([C@H](c3ccccc3F)C3CCOCC3)c2c1` [Example 233, 11-Chloro-8-[(S)-(2-fluorophenyl)(oxan-4-yl)methyl]-5-[4-(^2H3)methyl-1-methyl-1H-1,2,3-triazol-5-yl]-3,8,10-triazatricyclo[7.4.0.0^2,^7]trideca-1(13),2(7),3,5,9,11-hexaene], the IC50 was less than 0.01 µM. Take `COc1nccc2c3ncc(-c4c(C)nnn4C)cc3n(C(c3cc(F)ccc3F)C3CCOCC3)c12` (racemic) [Example 26, 8-[(2,5-Difluorophenyl)(oxan-4-yl)methyl]-5-(dimethyl-1H-1,2,3-triazol-5-yl)-10-methoxy-3,8,11-triazatricyclo[7.4.0.0^2,^7]trideca-1(13),2(7),3,5,9,11-hexaene]: the half-inhibitory concentration (IC50) was less than 0.01 µM. In the case of `[2H]C([2H])([2H])c1nnn(C)c1-c1cnc2c3c(OCC)ncc(S(C)(=O)=O)c3n(C(c3ncccc3F)C3CCC(F)(F)CC3)c2c1` (stereo not shown) [Example 75, 8-[(4,4-Difluorocyclohexyl)(3-fluoropyridin-2-yl)methyl]-13-ethoxy-10-methanesulfonyl-5-[4-(^2H3)methyl-1-methyl-1H-1,2,3-triazol-5-yl]-3,8,12-triazatricyclo[7.4.0.0^2,^7]trideca-1(13),2(7),3,5,9,11-hexaene] it was less than 1.5 µM; in that of `Cc1nnn(C)c1-c1cnc2c3cncc(Cl)c3n([C@H](c3ccccc3)C3CCOCC3)c2c1` [Example 34, 10-Chloro-5-(dimethyl-1H-1,2,3-triazol-5-yl)-8-[(S)-oxan-4-yl(phenyl)methyl]-3,8,12-triazatricyclo[7.4.0.0^2,^7]trideca-1(13),2(7),3,5,9,11-hexaene], less than 0.01 µM. In the case of `CNCCN(C)c1ccc2c3ncc(-c4c(C)nnn4C)cc3n([C@H](c3ccccc3F)C3CCOCC3)c2n1` [Example 228, 5-(Dimethyl-1H-1,2,3-triazol-5-yl)-8-[(S)-(2-fluorophenyl)(oxan-4-yl)methyl]-N-methyl-N-[2-(methylamino)ethyl]-3,8,10-triazatricyclo[7.4.0.0^2,^7]trideca-1(13),2(7),3,5,9,11-hexaen-11-amine] it was less than 0.001 µM.

In the case of `COc1nccc2c3ncc(-c4c(C)nnn4C)cc3n(C(c3cccc(F)c3)C3CCOCC3)c12` (single isomer, unassigned) [Example 21, 5-(Dimethyl-1H-1,2,3-triazol-5-yl)-8-[(3-fluorophenyl)(oxan-4-yl)methyl]-10-methoxy-3,8,11-triazatricyclo[7.4.0.0^2,^7]trideca-1(13),2(7),3,5,9,11-hexaene], the IC50 is less than 1.5 µM. Turning to `Cc1noc(C)c1-c1cnc2c3cnc(Cl)cc3n(C(c3ccc(Cl)cn3)C3CCOCC3)c2c1` (single isomer, unassigned) [Example 327], the IC50 is less than 1.5 µM. As to `[2H]C([2H])([2H])c1nnn(C)c1-c1cnc2c3cnc(C(C)=O)cc3n([C@H](c3ccccc3F)C3CCOCC3)c2c1` [Example 333], the IC50 is less than 0.01 µM.

`Cc1cnn(C)c1-c1ccc2c3ncc(-c4c(C)nnn4C)cc3n([C@H](c3ccccc3)C3CCOCC3)c2n1` [Example 148, 5-(Dimethyl-1H-1,2,3-triazol-5-yl)-11-(1,4-dimethyl-1H-pyrazol-5-yl)-8-[(S)-oxan-4-yl(phenyl)methyl]-3,8,10-triazatricyclo[7.4.0.0^2,^7]trideca-1(13),2(7),3,5,9,11-hexaene]: the IC50 was less than 0.01 µM. In the case of `[2H]C([2H])([2H])c1nnn(C)c1-c1cnc2c3ccc(-c4c(C([2H])([2H])[2H])nnn4C)nc3n([C@H](c3ccccc3F)C3CCOCC3)c2c1` [Example 232, 8-[(S)-(2-Fluorophenyl)(oxan-4-yl)methyl]-5,11-bis[4-(^2H3)methyl-1-methyl-1H-1,2,3-triazol-5-yl]-3,8,10-triazatricyclo[7.4.0.0^2,^7]trideca-1(13),2(7),3,5,9,11-hexaene] it was less than 0.01 µM. On to `Cc1noc(C)c1-c1cnc2c3ccc(S(C)(=O)=O)nc3n([C@H](c3ccccc3)C3CCOCC3)c2c1` [Example 144, 5-(Dimethyl-1,2-oxazol-4-yl)-11-methanesulfonyl-8-[(S)-oxan-4-yl(phenyl)methyl]-3,8,10-triazatricyclo[7.4.0.0^2,^7]trideca-1(13),2(7),3,5,9,11-hexaene], for which the IC50 is less than 0.01 µM. For the compound `CC(=O)c1cnc2c3ccc(-c4c(C)nnn4C)nc3n([C@H](c3ccccc3)C3CCOCC3)c2c1` [Example 379], the IC50 was less than 0.001 µM. As for `[2H]C([2H])([2H])c1nnn(C)c1-c1cnc2c3c(OC)ncc(S(C)(=O)=O)c3n(C(c3c(F)cc(F)cc3F)C3CCOCC3)c2c1` (single isomer, unassigned) [Example 83, 10-Methanesulfonyl-13-methoxy-5-[4-(^2H3)methyl-1-methyl-1H-1,2,3-triazol-5-yl]-8-[oxan-4-yl(2,4,6-trifluorophenyl)methyl]-3,8,12-triazatricyclo[7.4.0.0^2,^7]trideca-1(13),2(7),3,5,9,11-hexaene], the figure is less than 0.001 µM; as for `[2H]C([2H])([2H])C(O)(c1cc2c(cn1)c1ncc(-c3c(C)noc3C)cc1n2[C@H](c1ccc(F)cc1)C1CCOCC1)C([2H])([2H])[2H]` [Example 224, 2-[5-(Dimethyl-1,2-oxazol-4-yl)-8-[(S)-(4-fluorophenyl)(oxan-4-yl)methyl]-3,8,12-triazatricyclo[7.4.0.0^2,^7]trideca-1(13),2(7),3,5,9,11-hexaen-11-yl](^2H6)propan-2-ol], less than 0.01 µM; as for `Cc1nnn(C)c1-c1cnc2c3c(OCC4CC4)ncc(S(C)(=O)=O)c3n([C@H](c3ccccc3)C3CCOCC3)c2c1` [Example 101, 13-(Cyclopropylmethoxy)-5-(dimethyl-1H-1,2,3-triazol-5-yl)-10-methanesulfonyl-8-[(S)-oxan-4-yl(phenyl)methyl]-3,8,12-triazatricyclo[7.4.0.0^2,^7]trideca-1(13),2(7),3,5,9,11-hexaene], less than 0.01 µM. As for `[2H]C([2H])([2H])c1nnn(C)c1-c1cnc2c3ccc(N4CCN(C([2H])([2H])[2H])CC4)nc3n([C@H](c3ccccc3)C3CCOCC3)c2c1` [Example 249, 5-[4-(^2H3)Methyl-1-methyl-1H-1,2,3-triazol-5-yl]-11-[4-(^2H3)methylpiperazin-1-yl]-8-[(S)-oxan-4-yl(phenyl)methyl]-3,8,10-triazatricyclo[7.4.0.0^2,^7]trideca-1(13),2(7),3,5,9,11-hexaene], the figure is less than 0.01 µM; as for `COc1ccc2c3ncc(-c4c(C)nnn4C)cc3n(C(c3cccc(F)c3)C3CCOCC3)c2n1` (racemic) [Example 16, 5-(Dimethyl-1H-1,2,3-triazol-5-yl)-8-[(3-fluorophenyl)(oxan-4-yl)methyl]-11-methoxy-3,8,10-triazatricyclo[7.4.0.0^2,^7]trideca-1(13),2(7),3,5,9,11-hexaene], less than 0.01 µM; as for `[2H]C([2H])([2H])c1nnn(C)c1-c1cnc2c3c(OCC4CC4(F)F)nccc3n([C@H](c3ccccc3)C3CCOCC3)c2c1` (stereo partly drawn) [Example 279, 13-[(2,2-Difluorocyclopropyl)methoxy]-5-[4-(^2H3)methyl-1-methyl-1H-1,2,3-triazol-5-yl]-8-[(S)-oxan-4-yl(phenyl)methyl]-3,8,12-triazatricyclo[7.4.0.0^2,^7]trideca-1(9),2(7),3,5,10,12-hexaene], less than 0.001 µM. Turning to `Cc1nnn(C)c1-c1cnc2c3ccc(S(C)(=O)=O)nc3n([C@H](c3ccccc3F)C3CCOCC3)c2c1` [Example 221, 5-(Dimethyl-1H-1,2,3-triazol-5-yl)-8-[(S)-(2-fluorophenyl)(oxan-4-yl)methyl]-11-methanesulfonyl-3,8,10-triazatricyclo[7.4.0.0^2,^7]trideca-1(13),2(7),3,5,9,11-hexaene], the IC50 was less than 0.01 µM. In the case of `Cc1nnn(C)c1-c1cnc2c3ccc(-c4c(C)nnn4C)nc3n([C@@H](c3ccccc3)C3CCOCC3)c2c1` [Example 164, 5,11-Bis(dimethyl-1H-1,2,3-triazol-5-yl)-8-[(R)-oxan-4-yl(phenyl)methyl]-3,8,10-triazatricyclo[7.4.0.0^2,^7]trideca-1(9),2(7),3,5,10,12-hexaene] it was less than 0.01 µM. As for `Cc1nnn(C)c1-c1cnc2c3c(F)nccc3n([C@H](c3ccccc3)C3CCOCC3)c2c1` [Example 3, 5-(Dimethyl-1H-1,2,3-triazol-5-yl)-13-fluoro-8-[(S)-oxan-4-yl(phenyl)methyl]-3,8,12-triazatricyclo[7.4.0.0^2,^7]trideca-1(13),2(7),3,5,9,11-hexaene], the figure is less than 0.01 µM; as for `CCOP(=O)(CCNc1ccc2c3ncc(-c4c(C)nnn4C)cc3n([C@H](c3ccccc3)C3CCOCC3)c2n1)OCC` [Example 215, Diethyl (2-{[5-(dimethyl-1H-1,2,3-triazol-5-yl)-8-[(S)-oxan-4-yl(phenyl)methyl]-3,8,10-triazatricyclo[7.4.0.0^2,^7]trideca-1(9),2(7),3,5,10,12-hexaen-11-yl]amino}ethyl)phosphonate], less than 0.01 µM.
